Our source for the Ki values is ChEMBL document CHEMBL1240344, “Phage-encoded combinatorial chemical libraries based on bicyclic peptides” (Nat Chem Biol, 2009).

In this experiment the target is T1, Deoxyribonuclease-2-alpha (Homo sapiens, UniProt O00115).
T1 sequence (O00115 whole entry): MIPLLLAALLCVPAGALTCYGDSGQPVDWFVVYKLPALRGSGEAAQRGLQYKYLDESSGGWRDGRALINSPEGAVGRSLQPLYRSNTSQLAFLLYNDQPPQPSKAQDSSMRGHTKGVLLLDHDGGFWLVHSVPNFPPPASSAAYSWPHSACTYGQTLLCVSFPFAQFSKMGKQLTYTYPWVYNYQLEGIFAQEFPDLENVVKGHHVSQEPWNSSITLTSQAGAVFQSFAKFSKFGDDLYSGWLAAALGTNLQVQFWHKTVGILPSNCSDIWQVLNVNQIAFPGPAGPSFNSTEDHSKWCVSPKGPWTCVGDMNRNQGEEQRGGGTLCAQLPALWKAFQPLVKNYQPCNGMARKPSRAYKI
Kind of experiment: Binding affinity to Dnase 2.

Residues, ends and D or L forms follow the SMILES beside them.

`CC(C)C[C@H](NC(=O)[C@H](Cc1ccccc1)NC(=O)[C@H](Cc1c[nH]c2ccccc12)NC(=O)[C@H](CCC(N)=O)NC(=O)[C@H](CC(C)C)NC(=O)[C@H](CC(C)C)NC(=O)[C@H](CCCN=C(N)N)NC(=O)[C@H](CC(C)C)NC(=O)[C@@H](N)CS)C(=O)N[C@@H](Cc1c[nH]c2ccccc12)C(=O)N[C@@H](C)C(=O)N[C@@H](CS)C(=O)O` (H-CLRLLQWFLWAC-OH): the Ki (in general, the dissociation constant of the complex between target and ligand, obtained from inhibition or displacement) is 200 nM.
